Tested on: peptide-specific IgG in plasma of prostate cancer patients and healthy donors
Assay: Detection of peptide-specific IgG in plasma by ELISA
Assay type: binding, human
Conditions: for IgG reactive to peptide in plasma: 1:100-diluted plasma
[1] = Prostate cancer patient 14, A33

Sequence	IgG reactive to peptide in plasma, Total (positive/tested) (Healthy donors)	IgG reactive to peptide in plasma (Prostate cancer patient 2, A31)	IgG reactive to peptide in plasma (Prostate cancer patient 4, A31)	IgG reactive to peptide in plasma (Prostate cancer patient 6, A31)	IgG reactive to peptide in plasma (Prostate cancer patient 9, A11)	IgG reactive to peptide in plasma (Prostate cancer patient 12, A11)	IgG reactive to peptide in plasma [1]	IgG reactive to peptide in plasma (Prostate cancer patient 17, A33)	IgG reactive to peptide in plasma (Prostate cancer patient 19, A33)	IgG reactive to peptide in plasma, Total (positive/tested) (Prostate cancer patients)	IgG reactive to peptide in plasma (Healthy donor 3, A31)
YPANEYAYRR (PSMA 272-281) [PSMA-derived peptide]	0/9	+ (IgG reactive to a corresponding peptide was judged to be positive when a difference of the optical density (OD) in a 1:100-diluted plasma was more than 100)	+ (IgG reactive to a corresponding peptide was judged to be positive when a difference of the optical density (OD) in a 1:100-diluted plasma was more than 100)	+ (IgG reactive to a corresponding peptide was judged to be positive when a difference of the optical density (OD) in a 1:100-diluted plasma was more than 100)	+ (IgG reactive to a corresponding peptide was judged to be positive when a difference of the optical density (OD) in a 1:100-diluted plasma was more than 100)	+ (IgG reactive to a corresponding peptide was judged to be positive when a difference of the optical density (OD) in a 1:100-diluted plasma was more than 100)	+ (IgG reactive to a corresponding peptide was judged to be positive when a difference of the optical density (OD) in a 1:100-diluted plasma was more than 100)	+ (IgG reactive to a corresponding peptide was judged to be positive when a difference of the optical density (OD) in a 1:100-diluted plasma was more than 100)	+ (IgG reactive to a corresponding peptide was judged to be positive when a difference of the optical density (OD) in a 1:100-diluted plasma was more than 100)	8/20	
HYELGEYIR (PAP 78-86) [PAP-derived peptide]	1/9						+ (IgG reactive to a corresponding peptide was judged to be positive when a difference of the optical density (OD) in a 1:100-diluted plasma was more than 100)			1/20	+ (IgG reactive to a corresponding peptide was judged to be positive when a difference of the optical density (OD) in a 1:100-diluted plasma was more than 100)
